pEC50, pIC50, pKd: −log10 of the molar value. “Also recorded” adds a separate entry of the source. Like-named read-outs stand apart in the source and are kept apart here. Bridges are numbered along the chain shown (N, C = ends). Primed or numbered codes have the meaning given here. Where no end group is shown, it is not given here. [ ]: non-standard residue; d: D form. trimesoyl″ = trimesic acid scaffold joined by three amide bonds; Nal = naphthylalanine (isomer not specified); pY = N[C@@H](Cc1ccc(OP(=O)(O)O)cc1)C(=O)O; Phg = N[C@H](C(=O)O)c1ccccc1; Pra = C#CC[C@H](N)C(=O)O; dNal = D-naphthylalanine; Dap = NC[C@H](N)C(=O)O
What was measured:
H358 lung cancer cells = assay: MTT assay, growth of H358 cells; assay type: cell-based
Method: FIG. 23a, b show on-bead assay of inhibition of Ras-Raf interaction by cyclorasin B3.
Cyclorasin B2-B4 were tested for inhibition of cell proliferation by the MTT assay.

human TNFα = target: T1, human TNFα (Homo sapiens, UniProt P01375); assay: Fluorescence anisotropy (FA) binding to TNFα; conditions: resynthesized, FITC-labeled, HPLC-purified peptide
T1 construct: extracellular domain of human TNFα (aa 77-233); made in house; host or cells: E. coli BL21(DE3)

WEHI-13VAR fibroblasts [1] = system: WEHI-13VAR fibroblasts
TNFα-TNFR1 interaction = target: T2, TNFα-TNFR1 interaction (Homo sapiens, UniProt P01375); assay: TNFα-TNFR1 interaction ELISA (HRP-TNFR1, immobilized TNFα); conditions: read-out: IC50, inhibition of TNF-alpha binding to its cognate receptor
T2 construct: extracellular domain of human TNFα (aa 77-233); host or cells: E. coli BL21(DE3) (TNFα)
Method: Recombinant TNFR1 was purchased from R&D Systems. EZ-Link Plus activated peroxidase, an amine-reactive form of HRP was purchased from Thermo Scientific. TNFR1 was labeled with HRP by combining 50 μL of TNFR1 (1.0 μM) and 4 μL of HRP […], of Na2CO3 buffer (0.2 M Na2CO3, 0.15 M NaCl, pH 9.0) for 1 h. The resulting TNFR1-HRP conjugate was treated with NaCNBH3 to reduce the resulting Schiff base and quenched with 20 μl of ethanolamine. A Nunc 96F Maxisorp plate was coated overnight with 100 μL of […] Neutravidin (in 50 mM Na2CO3, pH 9.0) at 4° C. The solution was removed and each well was washed with 100 μL of the blocking buffer containing 3% BSA. […] The absorbance at 450 nm was measured and plotted against the peptide concentration and the IC50 value was obtained by curve fitting.
TNFα signaling begins with the binding of the TNFα trimer to the extracellular domain of TNFR1, triggering the release of the inhibitory protein, silencer of death domains (SODD), from the intracellular domain of TNFR1 (Chen, G and Goeddel, D V. Science, 2002, 296, 1634-1635). […] After washing, the amount of HRP-TNFR1 bound to each well was quantitated by ELISA using 3,3′,5,5′-tetramethylbenzidine (TMB) as HRP substrate, which was converted into 3,3′,5,5′-tetramethylbenzidine diimine by HRP resulting in absorbance at 450 nm (Martin, T L et al. J. Histochem. Cytochem., 1984, 32, 793).

[2] = target: GST-FKBP12 fusion protein (Homo sapiens, UniProt P62942); assay: FA binding to GST-FKBP12
Ras-GTP = Ras-GTP (Homo sapiens, UniProt P01116); assay: FA binding to K-Ras loaded with GTP
Ras-Raf interaction = Ras-Raf interaction (Homo sapiens, UniProt P01116); assay: Qualitative on-bead assay of Ras-Raf interaction; assay type: binding; conditions: 10 μM peptide, Texas red-labeled K-Ras, immobilized GST-Raf
H1299 lung cancer cells = assay: MTT proliferation assay; assay type: cell-based
Method: One hundred μL of H1299 cells (0.5×10^5 cells/mL) were placed in each well of a 96-well culture plate and allowed to grow overnight. […] Ten μL of a MTT stock solution (5 mg/ml) was added into each well. The plate was incubated at 37° C. for 4 h. Then 100 μL of SDS-HCl solubilizing buffer was added into each well, and the resulting solution was mixed thoroughly. The plate was incubated at 37° C. overnight. The absorbance of the formazan product was measured at 570 nm using a Molecular Devices Spectramax M5 plate reader. Cells treated with DMSO were used as control.

WEHI-13VAR fibroblasts [3] = conditions: in the presence of actinomycin-D; Khabar et al.; cited from earlier work
K-Ras [4] = target: T3, K-Ras (Homo sapiens, UniProt P01116, G12V); assay: FA binding to K-Ras (Example 4 DCAI-bearing bicyclic peptides); conditions: FAM- or FITC-labeled peptide; NB = no binding
T3 construct: GST; made in house
From the text: To confirm the screening results, four hit sequences (peptides A2, A8, B5 and B8; hereafter named as peptides 1-4) were selected for resynthesis and tested for binding to K-Ras in solution by fluorescence anisotropy. The peptides were synthesized on Rink Amide resin, cleaved, deprotected, and purified by reversed-phase HPLC. Each peptide contains a Lys outside of the bicyclic rings to serve as the point of labeling with an amine-reactive fluorescent dye (FAM-NHS or FITC).

K-Ras [5] = target: K-Ras (Homo sapiens, UniProt P01116); assay: FA-based competition assay for binding to K-Ras
K-Ras [6] = target: T3, K-Ras; assay: Competition between labeled peptide 2 and DCAI for K-Ras; assay type: binding

## CCCCCCCC/C=C\CCCCCCCC(=O)NCCCC[C@H](NC(=O)[C@@H]1CNC(=O)c2cc3cc(c2)C(=O)NC(Cc2ccc4ccccc4c2)C(=O)N[C@@H](CO)C(=O)N[C@@H](CCC(N)=O)C(=O)NC(Cc2ccc4ccccc4c2)C(=O)N[C@@H](c2ccccc2)C(=O)N[C@@H](CCCCNC3=O)C(=O)N[C@H](Cc2ccccc2)C(=O)N[C@@H](CCCNC(=N)N)C(=O)N[C@H](C(C)C)C(=O)NC(CCCNC(=N)N)C(=O)N1)C(N)=O (some centres unmarked) [oleiylated cyclorasin B3]
H358 lung cancer cells
  anti-proliferative activity against H358 lung cancer cells: modest anti-proliferative activity

## bicyclo(Phg-Tyr-D-Ala-Lys-Tyr-D-Phe-Gly-D-Lys-His-Dap) [Necrostatin C1]
Human TNFα
  pKd: 6.35
WEHI-13VAR fibroblasts [1]; TNFα 0-250 ng/mL
  LD50 of TNFα in the presence of 50 μM Necrostatin C1: 1.8 ng/mL
TNFα-TNFR1 interaction
  pIC50: 5.51

## Bicyclo(Arg-Arg-Arg-Arg-Nal-Phe-Dap-S er-D-Val-Pro-pTyr-His-Dap) (RRRR[Nal]F[Dap]S[dV]P[pY]H[Dap]; linker N-7-13 via trimesic acid (inferred)) [control bicyclic peptide, reference compound]
Human TNFα
  KD for TNFα: no detectable binding
WEHI-13VAR fibroblasts [1]; TNFα 0.04 ng/mL, peptide 0-25 μM, actinomycin D
  protection of cells from TNFα-induced cell death: no protective effect

## nal-Ser-Gln-nal-Phg-Lys-phe-Arg-val-Arg-Dap [Hit 82]
[2]
  binding to GST-FKBP12: very weakly
Ras-GTP
  fold higher affinity for Ras-GTP and Ras-GPPNP than Ras-GDP: approximately 8 fold
Ras-Raf interaction; listed as cyclorasin B3
  effect on Ras-Raf interaction (bead staining): completely abolished; also recorded: abolished Ras-Raf interaction

## bicyclo(Ala-d-Leu-Phe-Arg-d-Asn-Pra-Ile-Asp-K-FNalR4-Dap)-K [Peptide 41]
H1299 lung cancer cells; 24-hour treatment, peptide 0-40 μM, read-out: ED50, anti-proliferative activity
  pEC50: ~5.05
H1299 lung cancer cells; 72 h, read-out: ED50, cell growth inhibition
  pEC50: ~5.15

## TNFα: Tumor necrosis factor-alpha, cytokine used to induce cell death
WEHI-13VAR fibroblasts [3]
  LD50 range of TNFα: 0.005 to 0.065 ng/mL
WEHI-13VAR fibroblasts [1]; TNFα 0-250 ng/mL
  LD50 of TNFα in the absence of TNFα inhibitor: 0.46 ng/mL

## bicyclo(Arg-Asp-Phg-Pra-d-Asn-K-FNalR4-Dap)-K (RD[Phg][Pra][dN]KF[dNal]RRRR[Dap]K-NH2; linker N-6-13 via trimesoyl″ (inferred); not fully specified; printed as bicyclo(Arg-Asp-Phg-Pra-d-Asn-K-FNalR4-Dap)-K) [Peptide 1]
K-Ras [4]
  KD for K-Ras: does not bind

## Orn-Arg-nal-Arg-Fpa-Lys-phe-glu-Gly-Dap [Hit 105B]
K-Ras [5]
  inhibition of binding of (FITC-labeled) cyclorasin B4 to K-Ras: inhibited the binding of FITC-labeled B4 to K-Ras
Ras-Raf interaction
  effect on Ras-Raf interaction (bead staining): completely abolished

## Cc1[nH]c2cc(Cl)cc(Cl)c2c1CCN [DCAI, 4,6-dichloro-2-methyl-3-aminoethyl-indole]
K-Ras [6]
  pIC50: 2.85

Source: patent publication US9868767B2, “Chemical synthesis and screening of bicyclic peptide libraries” (OHIO STATE INNOVATION FOUNDATION, priority 2013, dated 2018)
